Reference: patent US20070049564A1 (Wyeth, priority 2005, published 2007)
In brackets after ≈: the same amount, converted by molar mass. Where two headings read alike, the source gives them in different places.

Legend:
[1] = system: E. coli GC 2231; test: MIC, broth microdilution; conditions: Escherichia coli
[2] = system: P. aeruginosa GC 2214; test: MIC, broth microdilution; conditions: Pseudomonas aeruginosa
[3] = system: E. faecalis GC 4555; test: MIC, broth microdilution; conditions: Enterococcus faecalis
Method: (§1) Antimicrobial susceptibility testing. The in vitro activities of the antibiotics are determined by the broth microdilution method as recommended by the National Committee for Clinical Laboratory Standards (NCCLS) (1). Mueller-Hinton II broth (MHBII)(BBL Cockeysville, Md.) is the medium employed in the testing procedures. Microtiter plates containing serial dilutions of each antimicrobial agent are inoculated with each organism to yield the appropriate density (10^5 CFU/ml) in a 100 μl final volume. The plates are incubated for 18-22 hours at 35° C. in ambient air.
(§2) Representative compounds were first incubated in mouse serum for an hour prior to the in vitro testing against a panel of selected gram-positive and gram-negative bacteria strains. All compounds were also pre-incubated in water for an hour prior to testing as control. Representative compounds of Formula I were incubated in human serum prior to MIC determination.

[4] = system: Staph. aureus Smith; test: In vivo activity (oral, iv; ED50) against Staph. aureus Smith in mice
Method: Representative examples of compounds of Formula I were tested for the oral efficacy using S. aureus Smith in mice.

[5] = system: S. aureus GC 1131; test: MIC, broth microdilution; conditions: Staphylococcus aureus
[6] = system: S. pneumoniae+ GC 4465; test: MIC, broth microdilution; conditions: Streptococcus pneumoniae
[7] = system: S. pneumoniae* GC 4465; test: MIC, broth microdilution; conditions: Streptococcus pneumoniae
[8] = system: E. faecalis GC 2242; test: MIC, broth microdilution; conditions: Enterococcus faecalis
[9] = system: E. coli; test: Range of MIC for E. coli strains; conditions: Escherichia coli
[10] = system: E. faecium GC 2243; test: MIC, broth microdilution; conditions: Enterococcus faecium
[11] = system: Staph.; test: Range of MIC for Staph. strains, including MRSA; conditions: Staphylococcus aureus, MRSA
[12] = system: S. aureus GC 2216; test: MIC, broth microdilution; conditions: Staphylococcus aureus
[13] = system: E. faecalis GC 2265; test: MIC, broth microdilution; conditions: Enterococcus faecalis
[14] = system: E. coli GC 2236; test: MIC, broth microdilution; conditions: Escherichia coli
[15] = system: S. epidermidis GC 4935; test: MIC, broth microdilution; conditions: Staphylococcus epidermidis
[16] = system: E. faecalis GC 2267; test: MIC, broth microdilution; conditions: Enterococcus faecalis
[17] = system: E. coli GC 2272; test: MIC, broth microdilution; conditions: Escherichia coli
[18] = system: c. albicans GC 3066; test: MIC, broth microdilution
[19] = system: E. coli GC 2232; test: MIC, broth microdilution; conditions: Escherichia coli
Method: as §1, §2

[20] = system: S. aureus GC 4536; test: MIC, broth microdilution; conditions: Staphylococcus aureus
Method: as §1, §2

[21] = read-out: MINIMAL INHIBITORY CONCENTRATION MIC, pre-incubated in Mouse Serum
[22] = read-out: MINIMAL INHIBITORY CONCENTRATION MIC, pre-incubated in Water

`CCCN(CC(=O)Nc1cc(N(C)C)c2c(c1O)C(=O)C1=C(O)[C@]3(O)C(=O)C(C(N)=O)=C(O)[C@@H](N(C)C)[C@@H]3C[C@@H]1C2)C(=O)OCOC(=O)c1cc(C)cc(C)c1` [Example 26, ({[(2-{[(5aR,6aS,7S,10aS)-9-(aminocarbonyl)-4,7-bis(dimethylamino)-1,8,10a,11-tetrahydroxy-10,12-dioxo-5,5a,6,6a,7,10,10a,12-octahydrotetracen-2-yl]amino}-2-oxoethyl)(propyl)amino]carbonyl}oxy)methyl 3,5-dimethylbenzoate] gave an MIC ([1]; GC2231, read-out: MINIMAL INHIBITORY CONCENTRATION MIC, pre-incubated in Mouse Serum) of 4 µg/mL (≈ 5.14 µM), an MIC ([1]; GC2231, read-out: MINIMAL INHIBITORY CONCENTRATION MIC, pre-incubated in Water) greater than 64 µg/mL and an MIC ([2]; GC2214, read-out: MINIMAL INHIBITORY CONCENTRATION MIC, pre-incubated in Mouse Serum) of 32 µg/mL (≈ 41.1 µM). It also gave an MIC ([2]; GC2214, read-out: MINIMAL INHIBITORY CONCENTRATION MIC, pre-incubated in Water) greater than 64 µg/mL, an MIC ([3]; GC4555, read-out: MINIMAL INHIBITORY CONCENTRATION MIC, pre-incubated in Mouse Serum) of 1 µg/mL (≈ 1.29 µM) and an MIC ([3]; GC4555, read-out: MINIMAL INHIBITORY CONCENTRATION MIC, pre-incubated in Water) of 4 µg/mL (≈ 5.14 µM). For the same compound, the ED50 ([4]; Staphylococcus aureus, in Mus musculus, iv, read-out: ED50 SIV (Staph aureus Smith)) was 0.43 mg/kg, the ED50 ([4]; Staphylococcus aureus, in Mus musculus, po, read-out: ED50 SOD (Staph aureus Smith)) was 8.79 mg/kg and the ED50 ([4]; Staphylococcus aureus, in Mus musculus, po, read-out: ED50 Staph Smith SOD) was 8.79 mg/kg. For the same compound, the ED50 ([4]; iv, read-out: ED50 Staph Smith SIV) was 0.43 mg/kg, the MIC ([5]; GC1131, read-out: MINIMAL INHIBITORY CONCENTRATION MIC, pre-incubated in Mouse Serum) was 0.5 µg/mL (≈ 0.643 µM) and the MIC ([5]; GC1131, read-out: MINIMAL INHIBITORY CONCENTRATION MIC, pre-incubated in Water) was 0.5 µg/mL (≈ 0.643 µM). For the same compound, the MIC [6, 21] was 4 µg/mL (≈ 5.14 µM), the MIC [6, 22] was 4 µg/mL (≈ 5.14 µM) and the MIC [7, 21] was 0.25 µg/mL (≈ 0.321 µM). The MIC [7, 22] was 0.25 µg/mL (≈ 0.321 µM), the MIC ([8]; GC2242, read-out: MINIMAL INHIBITORY CONCENTRATION MIC, pre-incubated in Mouse Serum) was 2 µg/mL (≈ 2.57 µM) and the MIC ([8]; GC2242, read-out: MINIMAL INHIBITORY CONCENTRATION MIC, pre-incubated in Water) was 4 µg/mL (≈ 5.14 µM). For the same compound, the MIC ([9]; 20 h, read-out: Range of MIC, E. coli (Mouse Serum)) was 1 to 4 µg/mL (≈ 1.29 to 5.14 µM), the MIC ([9]; read-out: Range of MIC, E. coli (mouse serum)) was 1 to 4 µg/mL (≈ 1.29 to 5.14 µM) and the MIC ([10]; GC2243, read-out: MINIMAL INHIBITORY CONCENTRATION MIC, pre-incubated in Mouse Serum) was 1 µg/mL (≈ 1.29 µM). The MIC ([10]; GC2243, read-out: MINIMAL INHIBITORY CONCENTRATION MIC, pre-incubated in Water) was 2 µg/mL (≈ 2.57 µM), the MIC ([11]; read-out: Range of MIC, Staph (Mouse Serum)) was 0.25 to 1 µg/mL (≈ 0.321 to 1.29 µM) and the MIC ([11]; read-out: Range of MIC, Staph (Water)) was 0.25 to 4 µg/mL (≈ 0.321 to 5.14 µM). For the same compound, the MIC ([11]; read-out: Range of MIC, Staph. (mouse serum)) was 0.25 to 1 µg/mL (≈ 0.321 to 1.29 µM), the MIC ([11]; read-out: Range of MIC, Staph. (water)) was 0.25 to 4 µg/mL (≈ 0.321 to 5.14 µM) and the MIC ([12]; GC2216, read-out: MINIMAL INHIBITORY CONCENTRATION MIC, pre-incubated in Mouse Serum) was 0.5 µg/mL (≈ 0.643 µM). The MIC ([12]; GC2216, read-out: MINIMAL INHIBITORY CONCENTRATION MIC, pre-incubated in Water) was 0.5 µg/mL (≈ 0.643 µM), the MIC ([13]; GC2265, read-out: MINIMAL INHIBITORY CONCENTRATION MIC, pre-incubated in Mouse Serum) was 2 µg/mL (≈ 2.57 µM) and the MIC ([13]; GC2265, read-out: MINIMAL INHIBITORY CONCENTRATION MIC, pre-incubated in Water) was 8 µg/mL (≈ 10.3 µM). The MIC ([14]; GC2236, read-out: MINIMAL INHIBITORY CONCENTRATION MIC, pre-incubated in Mouse Serum) was 2 µg/mL (≈ 2.57 µM), the MIC ([14]; GC2236, read-out: MINIMAL INHIBITORY CONCENTRATION MIC, pre-incubated in Water) was greater than 64 µg/mL and the MIC ([15]; GC4935, read-out: MINIMAL INHIBITORY CONCENTRATION MIC, pre-incubated in Mouse Serum) was 1 µg/mL (≈ 1.29 µM). For the same compound, the MIC ([15]; GC4935, read-out: MINIMAL INHIBITORY CONCENTRATION MIC, pre-incubated in Water) was 2 µg/mL (≈ 2.57 µM), the MIC ([16]; GC2267, read-out: MINIMAL INHIBITORY CONCENTRATION MIC, pre-incubated in Mouse Serum) was 2 µg/mL (≈ 2.57 µM) and the MIC ([16]; GC2267, read-out: MINIMAL INHIBITORY CONCENTRATION MIC, pre-incubated in Water) was 4 µg/mL (≈ 5.14 µM). For the same compound, the MIC ([17]; GC2272, read-out: MINIMAL INHIBITORY CONCENTRATION MIC, pre-incubated in Mouse Serum) was 2 µg/mL (≈ 2.57 µM), the MIC ([17]; GC2272, read-out: MINIMAL INHIBITORY CONCENTRATION MIC, pre-incubated in Water) was 64 µg/mL (≈ 82.3 µM) and the MIC ([18]; Candida albicans, GC3066, read-out: MINIMAL INHIBITORY CONCENTRATION MIC) was greater than 64 µg/mL. For the same compound, the “MINIMAL INHIBITORY CONCENTRATION MIC” value ([18]; pre-incubated in Water) was greater than 64 UG/ML, the MIC ([19]; GC2232, read-out: MINIMAL INHIBITORY CONCENTRATION MIC, pre-incubated in Mouse Serum) was 1 µg/mL (≈ 1.29 µM) and the MIC ([19]; GC2232, read-out: MINIMAL INHIBITORY CONCENTRATION MIC, pre-incubated in Water) was greater than 64 µg/mL. For the same compound, the MIC ([20]; GC4536, read-out: MINIMAL INHIBITORY CONCENTRATION MIC, pre-incubated in Mouse Serum) was 0.25 µg/mL (≈ 0.321 µM) and the MIC ([20]; GC4536, read-out: MINIMAL INHIBITORY CONCENTRATION MIC, pre-incubated in Water) was 0.5 µg/mL (≈ 0.643 µM).
